{"source": "patent US12582625B2", "about": "“Methods for treating neuroblastoma” (priority 2015, dated 2026)", "tested_on": "high-risk neuroblastoma in complete remission", "test": "NMTRC003 phase II prevention trial: event free and overall survival", "format": "in vivo, human", "from_the_text": "Study Design. This was an open label, single agent, multicenter clinical trial for patients with high-risk neuroblastoma in complete remission at the completion of standard therapy. […] Prior to study entry, written informed consent was obtained from the subjects' parent(s) or guardian(s) and, when appropriate, written assent was obtained from subjects. ClinicalTrials.gov Identifiers: NCT01586260/NCT02395666.\nSubjects were required to have histologically confirmed International Neuroblastoma Staging System (INSS) high-risk neuroblastoma at the time of diagnosis. Subjects must have completed standard high-risk neuroblastoma (HRNB) therapy with 5-7 cycles of induction chemotherapy, surgical resection of primary tumor (if feasible), consolidative therapy with high-dose chemotherapy/autologous stem cell support and radiation therapy as indicated, and anti-GD2 antibody therapy with isotretinoin for up to 6 cycles. […] To be considered in complete remission, subjects had to have no radiographic evidence for persistent neuroblastoma by CT or MRI (and by metaiodobenzylguanidine (MIBG) in subjects whose tumors were originally MIBG avid), histologically negative bone marrow aspirate/biopsy, and normal urinary catecholamines as assessed by ratios of vanillylmandelic acid and homovanillic acid to creatinine. Subjects with residual masses or bone changes visible on CT or MRI could still be considered in CR if the lesions were negative by both MIBG and PET scans.\nDosing diaries were required to be completed for each cycle. […] The primary endpoint was Event Free Survival (EFS); secondary objectives included Overall Survival (OS) and safety. EFS was defined as the period from the first day of administration of study drug to the first occurrence of relapse or death, and OS was defined as the first day of administration of study drug until death; subjects without an event were censored at the time of last contact. Safety analysis was conducted on all subjects who received at least one dose of study drug, and included the frequency, grading, expectedness and attribution of all adverse events as well as dose interruptions, dose reductions, and treatment discontinuation.\nStatistical Analysis: Estimation and hypothesis testing based on survival data. Event-free and overall survival were estimated using the method of Kaplan and Meier (Meier, 1958) while standard errors were estimated using Greenwood's formula. […] However, NMTRC003 patients enrolled on ANBL0032 represent a subset of the ANBL0032 population, patients event-free at the start of NMTRC003 therapy (6-10 months after the start of ANBL0032 therapy) (Yu et al., 2010). Therefore, it was necessary to adjust the published ANBL0032 EFS using the definition of conditional probability for a direct comparison. […]", "note": "“And” between values parts separate entries of the source, which are not always exact repeats. Equal entries are not always repeated."}
{"smiles": "NCCCC(N)(C(=O)O)C(F)F", "note": "(stereo not shown) [DFMO, 2,5-diamino-2-(difluoromethyl) pentanoic acid]", "values": [{"measurement": "subjects who have relapsed to date", "setting": "ITT population (91)", "result": 6}, {"measurement": "relapses after completion of DFMO therapy (all 27 cycles)", "setting": "follow up of up to 3.5 years", "result": "no late relapses and None"}, {"measurement": "outcome of subjects with Curie score greater than 0 prior to immunotherapy", "setting": "n=4 of 52 with known Curie score, ANBL0032 followed by DFMO", "result": "remain in remission"}, {"measurement": "2-year event free survival (EFS)", "setting": "subjects previously enrolled on ANBL0032 (n=74)", "result": "95% (±3%) and 95% (+/−3%)"}]}
